For this data set, the target named is Albumin (Homo sapiens, UniProt P02768). The data set is described as follows: Binding affinity to human serum albumin assessed as association constant measured after 18 hrs by equilibrium dialysis method.
Sequence of Albumin (P02768 whole entry): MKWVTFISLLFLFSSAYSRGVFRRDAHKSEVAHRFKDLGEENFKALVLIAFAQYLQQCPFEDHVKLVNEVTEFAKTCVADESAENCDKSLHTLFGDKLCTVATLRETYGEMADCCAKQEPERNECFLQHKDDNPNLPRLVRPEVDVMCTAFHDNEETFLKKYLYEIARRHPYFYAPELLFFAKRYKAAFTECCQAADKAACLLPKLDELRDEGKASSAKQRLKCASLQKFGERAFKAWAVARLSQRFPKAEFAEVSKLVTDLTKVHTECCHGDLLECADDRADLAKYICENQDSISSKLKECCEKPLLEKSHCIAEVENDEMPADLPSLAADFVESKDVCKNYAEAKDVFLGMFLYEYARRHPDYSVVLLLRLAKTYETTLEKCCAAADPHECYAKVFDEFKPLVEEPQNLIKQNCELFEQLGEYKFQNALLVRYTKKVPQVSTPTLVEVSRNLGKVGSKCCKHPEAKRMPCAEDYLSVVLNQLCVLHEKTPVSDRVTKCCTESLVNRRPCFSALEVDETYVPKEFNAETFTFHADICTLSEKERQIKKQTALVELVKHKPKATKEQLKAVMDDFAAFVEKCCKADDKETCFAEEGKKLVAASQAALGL

As for `COc1c(C)c2c(c(O)c1C/C=C(\C)CCC(=O)OCCN1CCOCC1)C(=O)OC2` [MYCOPHENOLATE MOFETIL], the K was 0.83 10^5/M.

On to `COC(=O)CC/C(C)=C/Cc1c(O)c2c(c(C)c1OC)COC2=O`, for which the K is listed as 1.91 10^5/M.

The values are drawn from ChEMBL document CHEMBL5316275 (J Med Chem, 2023).
